“And” between values parts separate entries of the source, which are not always exact repeats. Equal values may be shown once.
Assays:
[1] = test system: intraperitoneal eosinophils; experiment: Activity on Mouse Intraperitoneal Hypereosinophilic Model (Ascaris suum extract sensitization); format: in vivo, BALB/c male mice; conditions: peroral, once a day, 10 administrations
Protocol: BALB/c male mice (body weight=ca. 25 g), divided in groups each consisting of five animals, were sensitized by intraperitoneal injection of physiological saline (0.11 mL) containing 0.1 mg of Ascaris suum extract. Seven days later, the same treatment was conducted; three days later, the animals were bled to death and injected intraperitoneally with 3 mL of physiological saline containing 1% dipotassium ethylenediaminetetraacetate (EDTA) and massaged on the abdominal part for about 30 sec. The abdominal part was incised to collect the intraperitoneal fluid, which was centrifuged at 130×g for 10 min. Fetal bovine serum (500 μl) containing 1% EDTA was added to the pellet to prepare a cell suspension. Part of the cell suspension was smeared on a glass slide with a centrifugal smearing device and subjected to Difquick staining. Thereafter, the total white blood cell (WBC) count and the eosinophil count were taken to determine the percentage of eosinophils in the total WBC. The total number of WBCs in the cell suspension was measured with an automatic hemocytometer. Multiplying the percentage of eosinophils in the total WBC by the total number of WBCs provided the number of eosinophils in the cell suspension. […] The mice neither sensitized nor administered the test compounds (untreated group), as well as the mice that were sensitized but not administered the test compounds (control group) were similarly administered 5% aqueous gum arabic perorally. Inhibition of the Increase in Eosinophils (%)={1-(test compound administered group-untreated group)/(control group-untreated group)}×100

eosinophils in BALF = experiment: Activity on Model for the Increase of Eosinophils in the Rat Bronchial Alveolar Lavage Fluid (Sephadex G200 sensitization); format: in vivo, Sd male rats; conditions: peroral, once a day, 10 administrations
Protocol: Sd male rats (8 wk old), divided in groups each consisting of five animals, were sensitized by an intravenous injection into tail vein of Sephadex G200 suspension (1 mL), that had been prepared to give a concentration of 0.75 mg/ml physiological saline. Seven days later, the same treatment was conducted; three days later, each rat was fitted with an tracheal cannula under anesthetization with pentobarbital and 7 mL of physiological saline containing 1% EDTA was injected via the cannula and recovered; this procedure was repeated three times to collect the BALF, which were centrifuged at 130×g for 10 min. Physiological saline (200 μl) containing 1% EDTA was added to the pellet to prepare a cell suspension. Part of the cell suspension was resuspended in fetal bovine serum containing 1% EDTA, smeared on a glass slide with a centrifugal smearing device and subjected to Difquick staining. Thereafter, the total WBC count and the eosinophil count were taken to determine the percentage of eosinophils in the total WBC. The total number of WBCs in the cell suspension was measured with a hemocytometer after staining with a Turck solution. Multiplying the percentage of eosinophils in the total WBC by the total number of WBCs provided the number of eosinophils in the cell suspension.
Each of the test compounds was suspended in 5% aqueous gum arabic and administered perorally to mice immediately after the initial sensitization on a once-a-day basis for a total of 10 administrations (test compound-treated group). The mice neither sensitized nor administered the test compounds (untreated group), as well as the mice that were sensitized but not administered the test compounds (control group) were similarly administered 5% aqueous gum arabic perorally.
Inhibition of the Increase of Eosinophils (%)={1-(test compound
administered group-untreated group)/(control group-untreated

[2] = Experiment on Acute Toxicity (oral, survival until 7th day); design: species or system ICR male mice; conditions: mouse, in vivo, 1000 mg/kg, peroral, until the 7th day of the administration, read-out: No. of Survivals (converted)
Description: ICR male mice (body weight=ca. 35 g) weighing about 30 g were divided in groups each consisting of one or three animals and administered perorally each of the test compounds as suspended in 5% aqueous gum arabic. The mice were then examined for their survival until the 7th day of the administration.

SMILES	Inhibition of the Increase of Eosinophils (%) ([1]; 30 mg/kg/day)	Inhibition of the Increase of Eosinophils (%) ([1]; 100 mg/kg/day)	Inhibition of the Increase of Eosinophils in BALF (%) (eosinophils in BALF; 30 mg/kg/day)	survival at 168 h [2]	also measured
CC(=O)OCC(=O)[C@@]1(O)CC[C@H]2[C@@H]3CCC4=CC(=O)C=C[C@]4(C)[C@H]3[C@@H](O)C[C@@]21C [Prednisolone Acetate, 11β, 17α, 21-trihydroxypregna-1,4-diene-3,20-dione 21-acetate, reference compound]					Inhibition of the Increase of Eosinophils (%) ([1]; 10 mg/kg/day): 65%; Inhibition of the Increase of Eosinophils in BALF (%) (eosinophils in BALF; 10 mg/kg/day): 76% and 69%
Cl.NC1CCn2c(CCc3ccccc3)nc3cccc1c32 (centres unmarked) [Example 18, 5,6-dihydro-2-(2-phenylethyl)-4H-imidazo[4,5,1-ij]quinolin-6-amine hydrochloride]	53%				
O=C(O)c1ccccc1COC1CCn2c(CCc3ccccc3)nc3cccc1c32 (single isomer, unassigned; (+)) [Example 24, (+)-6-(2-carboxyphenyl)methoxy-5,6-dihydro-2-(2-phenylethyl)-4H-imidazo[4,5,1-ij]quinoline]	45%				
OC1CCn2c(CCc3ccccc3)nc3cccc1c32 (centres unmarked) [Example 4, 5,6-dihydro-2-(2-phenylethyl)-4H-imidazo[4,5,1-ij]quinolin-6-ol]	67%	57%	90%	100%	
CON=C1CCn2c(CCc3ccccc3)nc3cccc1c32 [Example 35, 5,6-dihydro-6-methoxyimino-2-(2-phenylethyl)-4H-imidazo[4,5,1-ij]quinoline]			73%	100%	
c1ccc(CCc2nc3cccc4c3n2CCC4)cc1 [Example 13, 5,6-dihydro-2-(2-phenylethyl)-4H-imidazo[4,5,1-ij]quinoline]	49%	64%		100%	
OC1CCn2c(CCc3ccccc3)nc3cccc1c32 (single isomer, unassigned; (+)) [Example 11, (+)-5,6-dihydro-2-(2-phenylethyl)-4H-imidazo[4,5,1-ij]quinolin-6-ol]	43%				
O=C1CCn2c(CCc3ccccc3)nc3cccc1c32 [Example 1, 4,5-dihydro-2-(2-phenylethyl)-6H-imidazo[4,5,1-ij]quinolin-6-one]	48%	68%	68%	100%	
O=C(O)c1ccccc1C(=O)OC1CCn2c(CCc3ccccc3)nc3cccc1c32 (centres unmarked) [Example 41, 5,6-dihydro-6-(o-carboxybenzoyloxy)-2-(2-phenylethyl)-4H-imidazo[4,5,1-ij]quinoline]				100%	
O=C(O)c1cccc(COC2CCn3c(CCc4ccccc4)nc4cccc2c43)c1C(=O)O (centres unmarked) [Example 64, 6-(2,3-dicarboxyphenyl)methoxy-5,6-dihydro-2-(2-phenylethyl)-4H-imidazo[4,5,1-ij]quinoline]	57%				
